Laboratory results as given in paper PMC11270968, “Antiplasmodial potential of isolated xanthones from Mesua ferrea Linn. roots: an in vitro and in silico molecular docking and pharmacokinetics study” (BMC Complementary Medicine and Therapies, 2024).
In brackets after ≈: the same amount, converted by molar mass. Entries after “also recorded” stand apart in the source; their conditions may differ. Read-outs that look alike come from different tables or passages of the source.

Columns and labels:
P. falciparum 3D7 = tested on: P. falciparum 3D7; parameters: method as in PMID 37029625; details: chloroquine-sensitive P. falciparum 3D7; read-out: IC50 antiplasmodial activity; cited from earlier work
P. falciparum K1 strain = test: in vitro antiplasmodial activity, parasite lactate dehydrogenase (pLDH) assay; format: cell-based, Plasmodium falciparum; details: for IC50: Plasmodium falciparum, read-out: IC50 ± SD P. falciparum K1; for Selectivity index (SI): CC50 Vero cells / IC50 P. falciparum K1; for antiplasmodial activity classification of pure compounds: P. falciparum K1, class by IC50
[1] = tested on: P. falciparum FcB1/Colombia; parameters: method as in PMID 15474559; details: chloroquine-resistant P. falciparum FcB1/Colombia; cited from earlier work
P. falciparum D6 = details: cited from earlier work
heme polymerization = tested on: heme polymerization; parameters: method as in PMID 9199506; details: cited from earlier work
Vero cells = test: in vitro cytotoxicity, MTT assay; format: cell-based; details: Vero cells, toxic when CC50 < 100 µM
Protocol: (§1) The purpose of this study was to determine the cytotoxicity of crude extracts and pure compounds isolated from M. ferrea roots on Vero cells. The MTT assay was performed according to an established protocol. Briefly, Vero cells were cultured in Dulbecco’s Modified Eagle Medium (Gibco, USA) supplemented with 10% fetal bovine serum (FBS) (Sigma-Aldrich, New Delhi, India). Vero cell suspensions were seeded onto 96-well culture plates at a density of 1 × 10^4 cells per well. The seeded culture plates were incubated at 37 °C in a 5% CO2 atmosphere for 24 h to facilitate cell attachment. Subsequently, the cultured cells were exposed to the test extracts and pure compounds in triplicate for each concentration. Doxorubicin (Sigma-Aldrich, India) was used as a positive control, whereas DMSO served as a negative control. All extracts and pure compounds were dissolved in DMSO and added to the medium at a final concentration of 0.5% DMSO. Plates containing the test samples were incubated at 37 °C in a 5% CO2 atmosphere for 48 h. Following incubation, the cell culture supernatant was discarded, and 50 µL of MTT solution (5 mg/mL) (Thermo Fisher Scientific, Oregon, USA) was added to each well. The test plates were then incubated at 37 °C in a 5% CO2 atmosphere for 2 h. Subsequently, the supernatant was discarded, and 100 µL/well of DMSO was added to induce cell lysis and dissolve the formazan crystals. To estimate the reactions, absorbance was measured at 560 nm in a microplate reader, and the background absorbance at 670 nm was subtracted.

[2] = in vitro cytotoxicity, MTT assay; format: cell-based; details: African green monkey, pure compounds and doxorubicin, 48 h, mean ± SD of three determinations; for CC50 at 48 h: Vero cells
Protocol: as §1

PfLDH = details: cited from earlier work
[3] = K1, pure compounds and reference drugs, 72 h, mean ± SD of three determinations
[4] = ratio of IC50 against P. falciparum K1

Row | Structure (SMILES) | IC50 (P. falciparum K1 strain; [3]) | cytotoxicity classification of pure compounds (Vero cells) | CC50 at 48 h [2] | antiplasmodial activity classification of pure compounds (P. falciparum K1 strain) | also measured
1 | C=CC(C)(C)c1c2c(c(O)c3c(=O)c4ccc(O)c(O)c4oc13)C=CC(C)(C)O2 [macluraxanthone] | – | – | – | – | IC50 (P. falciparum 3D7): 4.28 µM
2 | C[C@H]1[C@H](OC(=O)CCC(=O)O)O[C@@H]2O[C@@]3(C)CC[C@H]4[C@H](C)CC[C@@H]1[C@@]24OO3 [Artesunate, artesunate, reference compound] | 0.003 µM | – | – | – | –
3 | C=CC(C)(C)c1c2c(c(O)c3c(=O)c4cccc(O)c4oc13)C=CC(C)(C)O2 [caloxanthone C] | – | – | – | – | IC50 antiplasmodial activity [1]: 1.3 µg/mL (≈ 3.44 µM)
4 | O=c1c2ccc(O)c(O)c2oc2c(O)c(O)c(O)cc12 [2,3,4,5,6-pentahydroxyxanthone] | – | – | – | – | IC50 (P. falciparum D6; chloroquine-sensitive P. falciparum D6, read-out: IC50 in vitro antiplasmodial activity): 400 nM; IC50 (heme polymerization; read-out: IC50 in vitro heme polymerization): 1200 nM
5 | CC1(C)C=Cc2c(cc(O)c3c(=O)c4ccc(O)c(O)c4oc23)O1 [isojacareubin] | – | – | – | – | IC50 (P. falciparum 3D7): 11.5 µM
6 | COc1c(O)ccc2oc3c(O)cccc3c(=O)c12 [Compound 7, 2,5-dihydroxy-1-methoxyxanthone] | 46.3 ± 1.65 µM | non-toxic | 587.9 ± 2.18 µM | moderate (moderate activity (IC50 20−100 µM)) | Selectivity index (SI) (P. falciparum K1 strain): 12.70
7 | COc1cc(O)c2c(=O)c3cccc(O)c3oc2c1 [Compound 6, 1,5-dihydroxy-3-methoxyxanthone] | 198 ± 2.43 µM | non-toxic | 210.2 ± 1.74 µM | low (low activity (IC50 100−200 µM)) | –
8 | CC1(C)C=Cc2cc3c(=O)c4c(O)cccc4oc3c(O)c2O1 [Compound 5, rheediachromenoxanthone] | 19.9 ± 0.72 µM | no toxicity; also recorded: non-toxic | 112 ± 1.54 µM | good (good activity (IC50 1−20 µM)) | cytotoxicity classification of pure compounds (Vero cells; listed as Rheediachromenoxanthone): non-toxicity; fold less potent than artesunate (P. falciparum K1 strain; [4]): ~6,643.3 fold; fold less potent than chloroquine (P. falciparum K1 strain; [4]): approximately 62.3 fold; times more potent than 2,5-dihydroxy-1-methoxyxanthone (7) (P. falciparum K1 strain; [4]): approximately 2.3 times
9 | COc1cccc2c(=O)c3c(O)cccc3oc12 [Compound 2, 1-hydroxy-5-methoxyxanthone] | 164 ± 1.71 µM | toxic (pure compounds are considered toxic to cells when the CC50 value is less than 100 µM) | 62 ± 1.18 µM | low (low activity (IC50 100−200 µM)) | –
10 | CCN(CC)CCCC(C)Nc1ccnc2cc(Cl)ccc12 (centres unmarked) [Chloroquine, chloroquine, reference compound] | – | – | – | – | PfLDH inhibition (PfLDH): weak inhibitor; IC50 (P. falciparum K1 strain; K1, 72 h): 0.32 µM
11 | COc1cccc2c1C(=O)c1c(O)c3c(c(O)c1C2=O)C[C@@](O)(C(=O)CO)C[C@@H]3O[C@H]1C[C@H](N)[C@H](O)[C@H](C)O1 [Doxorubicin, reference compound] | – | – | 3.35 ± 0.28 µM | – | –
12 | O=c1c2cccc(O)c2oc2cccc(O)c12 [Compound 4, 1,5-dihydroxyxanthone] | 107 ± 4.41 µM | non-toxic | 416.7 ± 1.98 µM | low (low activity (IC50 100−200 µM)) | Selectivity index (SI) (P. falciparum K1 strain): 3.89
13 | O=c1c2ccc(O)cc2oc2cccc(O)c12 [Compound 3, 1,6-dihydroxyxanthone] | 226.1 ± 1.32 µM | non-toxic | – | inactive | CC50 ([2]; read-out: CC50 ± SD Vero cells): 182.8 ± 1.62 µM
14 | COc1cc2c(=O)c3ccc(OC)c(OC)c3oc2c(OC)c1OC [2,3,4,5,6-pentamethoxyxanthone] | – | – | – | – | in vitro antiplasmodial activity (P. falciparum D6; same study as pentahydroxyxanthone): no in vitro antiplasmodial activity; heme polymerization inhibition (heme polymerization): no in vitro antiplasmodial activity or heme polymerization
15 | O=c1c2cccc(O)c2oc2cc(O)cc(O)c12 [1,3,5-trihydroxyxanthone] | – | – | – | – | IC50 (P. falciparum D6; P. falciparum D6, read-out: IC50 antiplasmodial activity): > 60000 nM; IC50 antiplasmodial activity [1]: 24.7 µg/mL (≈ 101 µM)
16 | COc1ccc2oc3cccc(O)c3c(=O)c2c1 [Compound 1, 1-hydroxy-7-methoxyxanthone] | 346 ± 3.51 µM | non-toxic | 195.8 ± 1.68 µM | inactive | –
